Literature values in patent US20140309164A1, “DEUTERATED NUCLEOSIDE PRODRUGS USEFUL FOR TREATING HCV” (priority 2013, published 2014).

Columns and labels:
[1] = pulled from clinical trials
HCV = conditions: percent of the trial participants; several large clinical trials

COc1nc(N)nc2c1ncn2[C@@H]1O[C@H](COP(=O)(N[C@@H](C)C(=O)OCC(C)(C)C)Oc2cccc3ccccc23)[C@@H](O)[C@@]1(C)O (some centres unmarked) [BMS-986094]
fatal adverse event in clinical trials [1]: death of a patient due to heart failure

CC(C)OC(=O)[C@H](C)NP(=O)(OC[C@H]1O[C@@H](n2ccc(=O)[nH]c2=O)C(C)(F)C1O)Oc1ccccc1 (some centres unmarked) [Sovaldi, Sofosbuvir]
sustained viral response (SVR) of twelve weeks (HCV): 50-90%

CC(C)OC(=O)[C@H](C)NP(=S)(OC[C@H]1O[C@@H](n2ccc(=O)[nH]c2=O)[C@](C)(O)[C@@H]1O)Oc1ccccc1 (some centres unmarked) [VX-135]
sustained viral response rate four weeks after the completion of treatment (SVR4), intent-to-treat analysis (HCV genotype 1; 200 mg VX-135 in combination with daclatasvir, treatment-naive genotype 1, 10 of 12): 83% | completion of treatment rate (SVR4) (HCV genotype 1; eleven patients who completed 12 weeks of treatment, VX-135 in combination with daclatasvir): 91% | serious adverse event (HCV genotype 1; one patient, VX-135 in combination with daclatasvir): serious adverse event of vomiting/nausea
